Publication PMC11873758, “Lonidamine, a Novel Modulator for the BvgAS System of Bordetella Species” (Microbiology and Immunology, 2024)

Molecular target: T1, VFT2 domain of BvgS (Bordetella pertussis, UniProt P16575)
T1 construct: His tag from pColdII (no GB1)
Assay: isothermal titration calorimetry
Assay type: binding
Settings: 50 mM sodium phosphate, pH 7.4; 300 µM lonidamine into 20 µM VFT2

T1 sequence (P16575 290-541): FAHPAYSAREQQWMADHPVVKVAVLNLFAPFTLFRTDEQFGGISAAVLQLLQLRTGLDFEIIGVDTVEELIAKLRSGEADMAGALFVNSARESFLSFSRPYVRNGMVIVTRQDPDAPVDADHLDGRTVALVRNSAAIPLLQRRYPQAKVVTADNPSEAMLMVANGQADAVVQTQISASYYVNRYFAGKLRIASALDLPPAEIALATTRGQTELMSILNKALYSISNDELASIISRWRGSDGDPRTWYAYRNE

O=C(O)c1nn(Cc2ccc(Cl)cc2Cl)c2ccccc12 [#5, 1‐(2,4‐dichlorobenzyl)‐1H‐indazole‐3‐carboxylic acid]
isothermal titration calorimetry: ITC revealed that lonidamine bound to VFT2 but not VFT1
